Test results reported in ChEMBL document CHEMBL5512651, “Synthesis and biological evaluation of 4-imidazolidinone-containing compounds as potent inhibitors of the MDM2/p53 interaction” (Eur J Med Chem, 2024).
Calls of active or inactive are those of the source. The rule behind the calls is not given here.

Assays:
[1] = tested on: MOLM-13; experiment: Induction of apoptosis in human MOLM-13 cells assessed as late apoptotic cells at 24.3 uM incubated for 24 hrs by Annexin V-FITC/PI staining based flow cytometry (reference value: 0.457 %); assay type: functional
[2] = tested on: MOLM-13; experiment: Induction of apoptosis in human MOLM-13 cells assessed as viable cells at 2.7 uM incubated for 24 hrs by Annexin V-FITC/PI staining based flow cytometry (reference value: 95.1 %); assay type: functional; conditions: read-out: Activity
[3] = tested on: MOLM-13; experiment: Induction of apoptosis in human MOLM-13 cells assessed as late apoptotic cells at 8.1 uM incubated for 24 hrs by Annexin V-FITC/PI staining based flow cytometry (reference value: 0.457 %); assay type: functional
[4] = tested on: MOLM-13; experiment: Induction of apoptosis in human MOLM-13 cells assessed as necrotic cells at 8.1 uM incubated for 24 hrs by Annexin V-FITC/PI staining based flow cytometry (reference value: 0.020 %); assay type: functional
[5] = tested on: MOLM-13; experiment: Induction of apoptosis in human MOLM-13 cells assessed as late apoptotic cells at 0.1 uM incubated for 24 hrs by Annexin V-FITC/PI staining based flow cytometry (reference value: 0.457 %); assay type: functional
[6] = target: Cellular tumor antigen p53 (Homo sapiens) (UniProt P04637); experiment: Activation of p53 pathway in human MOLM-13 cells assessed as increase in p21 level incubated for 24 hrs by Western blot analysis; assay type: cell-based; conditions: filed as activator, dose 0.038-0.6 µM
Sequence of Cellular tumor antigen p53 (Homo sapiens) (P04637 whole entry, looked up): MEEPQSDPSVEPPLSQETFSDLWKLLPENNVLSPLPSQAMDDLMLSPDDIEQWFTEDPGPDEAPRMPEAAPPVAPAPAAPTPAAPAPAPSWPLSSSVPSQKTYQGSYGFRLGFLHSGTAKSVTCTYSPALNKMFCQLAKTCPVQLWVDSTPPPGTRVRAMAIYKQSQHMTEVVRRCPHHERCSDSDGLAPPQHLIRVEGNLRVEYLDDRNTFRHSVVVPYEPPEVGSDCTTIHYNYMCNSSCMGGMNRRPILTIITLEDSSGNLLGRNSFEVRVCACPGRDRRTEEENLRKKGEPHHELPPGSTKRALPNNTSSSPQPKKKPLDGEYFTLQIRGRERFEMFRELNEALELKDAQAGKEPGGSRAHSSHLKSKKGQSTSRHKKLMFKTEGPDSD

[7] = tested on: HeLa; experiment: cells; conditions: Homo sapiens, 96 h
[8] = tested on: MOLM-13; experiment: Induction of apoptosis in human MOLM-13 cells assessed as necrotic cells at 24.3 uM incubated for 24 hrs by Annexin V-FITC/PI staining based flow cytometry (reference value: 0.020 %); assay type: functional
[9] = tested on: MOLM-13; experiment: Induction of apoptosis in human MOLM-13 cells assessed as necrotic cells at 0.9 uM incubated for 24 hrs by Annexin V-FITC/PI staining based flow cytometry (reference value: 0.020 %); assay type: functional
[10] = target: Cellular tumor antigen p53 (Homo sapiens) (UniProt P04637); experiment: Activation of p53 pathway in human HeLa cells assessed as increase in MDM2 level at 1 uM incubated for 24 hrs by Western blot analysis; assay type: cell-based
[11] = target: Cellular tumor antigen p53 (Homo sapiens) (UniProt P04637); experiment: Activation of p53 pathway in human HeLa cells assessed as increase in p21 level at 1 uM incubated for 24 hrs by Western blot analysis; assay type: cell-based
[12] = tested on: MOLM-13; experiment: Induction of apoptosis in human MOLM-13 cells assessed as necrotic cells at 0.1 uM incubated for 24 hrs by Annexin V-FITC/PI staining based flow cytometry (reference value: 0.020 %); assay type: functional
[13] = target: Cellular tumor antigen p53 (Homo sapiens) (UniProt P04637); experiment: Activation of p53 pathway in human MOLM-13 cells assessed as increase in MDM2 mRNA level incubated for 24 hrs by qPCR analysis; assay type: cell-based; conditions: filed as activator, dose 0.038-0.6 µM
[14] = tested on: MOLM-13; experiment: Induction of apoptosis in human MOLM-13 cells assessed as early apoptotic cells at 0.1 uM incubated for 24 hrs by Annexin V-FITC/PI staining based flow cytometry (reference value: 4.44 %); assay type: functional
[15] = Selectivity index, ratio of IC50 for HEK293 cells to IC50 for human A549 cells; assay type: toxicity; conditions: HEK293 cells versus A549 cells, read-out: Ratio IC50
[16] = target: Tumour suppressor protein p53/Mdm4 (Homo sapiens, UniProt O15151); experiment: Inhibition of MDM4/p53 (unknown origin) interaction by fluorescence polarization assay; assay type: protein assay
Sequence of Tumour suppressor protein p53/Mdm4 (P04637 whole entry): as the sequence (P04637 whole entry, looked up) above
Sequence of Tumour suppressor protein p53/Mdm4 (O15151 whole entry): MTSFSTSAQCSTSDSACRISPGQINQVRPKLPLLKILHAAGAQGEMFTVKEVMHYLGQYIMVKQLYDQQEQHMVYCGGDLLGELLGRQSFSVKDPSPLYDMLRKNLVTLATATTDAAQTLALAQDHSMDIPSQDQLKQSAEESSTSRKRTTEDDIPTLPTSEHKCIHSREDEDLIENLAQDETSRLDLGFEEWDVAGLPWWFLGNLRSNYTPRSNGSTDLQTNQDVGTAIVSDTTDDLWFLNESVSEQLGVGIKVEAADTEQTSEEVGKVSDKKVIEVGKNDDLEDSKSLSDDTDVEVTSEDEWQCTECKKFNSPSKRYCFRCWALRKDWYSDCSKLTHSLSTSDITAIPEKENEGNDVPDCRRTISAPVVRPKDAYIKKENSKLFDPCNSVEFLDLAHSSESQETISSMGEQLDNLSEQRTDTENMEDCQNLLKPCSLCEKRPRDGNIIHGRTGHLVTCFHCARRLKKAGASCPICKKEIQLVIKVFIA

`COc1cc(C(=O)O)ccc1N1CN2[C@@H](CC(C)(C)C)[C@@]3(CNc4cc(Cl)ccc43)[C@@H](c3cccc(Cl)c3)[C@@H]2C1=O` showed an Activity [1] of 1.96%, a viability at 2.7 µM [2] of 30.1% and an Activity [3] of 1.41%. The Activity [4] was 0.176%, the Activity [5] was 0.797% and the Activity [6] was “Dose-Dependent Effect”. For the same molecule, the IC50 [7] was 12.3 µM, the Activity [8] was 0.047% and the Activity [9] was 0.119%. The Activity [10] was “inactive”, the Activity [11] was “inactive” and the Activity [12] was 0.124%. For the same molecule, the Activity [13] was “Dose-Dependent Effect”, the Activity [14] was 15.2% and the selectivity ratio [15] was 52. The Ki [16] was > 27 µM.
